# Reference: patent US20240216354A1, “IMMUNOMODULATORY IMIDE DRUGS AS ZETA-CHAIN-ASSOCIATED PROTEIN KINASE 70 (ZAP70) AGONISTS AND USES THEREOF” (Dana-Farber Cancer Institute, Inc., priority 2019, published 2024)
# What was measured:
# Format in all cases: cell-based
# Zap-70 [1] = target: T1, Zap-70 (Homo sapiens, UniProt P43403); assay: Immunoblotting of p-Zap-70 in KHYG-1 NK cell line; conditions: KHYG-1 cells, pomalidomide 0.25-1 μM, 24 h
# T1 sequence (P43403 1-619): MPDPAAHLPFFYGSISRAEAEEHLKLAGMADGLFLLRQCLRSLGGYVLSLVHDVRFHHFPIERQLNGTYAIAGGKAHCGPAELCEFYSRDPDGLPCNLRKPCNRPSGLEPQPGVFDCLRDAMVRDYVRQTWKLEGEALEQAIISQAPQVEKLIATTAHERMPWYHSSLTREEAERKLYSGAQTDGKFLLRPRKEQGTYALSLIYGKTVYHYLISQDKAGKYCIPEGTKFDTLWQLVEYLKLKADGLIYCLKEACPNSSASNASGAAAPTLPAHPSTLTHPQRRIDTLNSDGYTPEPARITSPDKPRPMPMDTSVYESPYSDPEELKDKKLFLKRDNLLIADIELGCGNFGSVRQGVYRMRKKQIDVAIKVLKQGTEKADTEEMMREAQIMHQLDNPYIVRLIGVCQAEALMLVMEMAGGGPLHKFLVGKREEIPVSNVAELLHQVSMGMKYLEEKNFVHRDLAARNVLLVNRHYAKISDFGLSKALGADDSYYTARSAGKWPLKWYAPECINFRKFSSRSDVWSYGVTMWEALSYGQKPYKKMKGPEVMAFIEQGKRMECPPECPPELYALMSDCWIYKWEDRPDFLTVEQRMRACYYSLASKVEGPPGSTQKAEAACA
# Experimental: (§1) KHYG-1 cells were cultured with pomalidomide (0.25-1 μM) for 24 h. (A) Whole cell lysates were subjected to immunoblotting using indicated Abs. (B) KHYG-1 cells were incubated with calcein-AM-stained U266 cells for 4 h at the indicated effector/target (E/T) ratios. Percent specific lysis was calculated as described previously. (C) KHYG-1 cells were transfected with Scsi or Zap-70si, and then cultured with pomalidomide (0.25 μM) for 72 h in the absence of IL-2. Viable cell number was determined, and cells were then incubated with calcein AM-labeled U266 target cells for 4 h at indicated effector/target (E/T) ratios. Percent specific lysis was calculated as described previously. (D) After transfection with Scsi or Zap-70si, cells were cultured with lenalidomide or pomalidomide for 72 h. Cell growth was assessed by MTT assay. (E) KHYG-1 cells were transfected with scrambled (Scsi) or CRBNsi. The transfectants were then cultured with pomalidomide (0.5 μM) for 24 h, and whole cell lysates were subjected to immunoblotting using indicated Abs. The arrow indicates CRBN expression. (F) Primary NK cells (#1, #2, #3, #4) were isolated from healthy volunteer's PBMCs, as described in Materials and Methods. NK cells were cultured with pomalidomide (0.5 μM) for 24 h, and whole cell lysates were subjected to immunoblotting using indicated Abs. […] Percent specific lysis was calculated as previously described.
# U266 cells = assay: KHYG-1 NK cell cytotoxicity against calcein-AM-labeled U266 cells; conditions: KHYG-1 cells, pomalidomide 0.25-1 μM 24 h, then 4 h with U266 at indicated E/T ratios
# Experimental: KHYG-1 cells were cultured with pomalidomide (0.25-1 μM) for 24 h. (A) Whole cell lysates were subjected to immunoblotting using indicated Abs. (B) KHYG-1 cells were incubated with calcein-AM-stained U266 cells for 4 h at the indicated effector/target (E/T) ratios. Percent specific lysis was calculated as described previously. (C) KHYG-1 cells were transfected with Scsi or Zap-70si, and then cultured with pomalidomide (0.25 μM) for 72 h in the absence of IL-2. Viable cell number was determined, and cells were then incubated with calcein AM-labeled U266 target cells for 4 h at indicated effector/target (E/T) ratios. Percent specific lysis was calculated as described previously. […] Cell growth was assessed by MTT assay. […] Percent specific lysis was calculated as previously described.
# (A) KHYG-1 cells were transfected with Scsi or CRBNsi. […] Cells were counted and incubated with calcein AM-labeled U266 for 4 h at indicated effector/target (E/T) ratios.
# (A, B) KHYG-1 cells were transfected with scrambled (Sc) or Zap-70 siRNAs, and then cultured for 72 h with lenalidomide (0.5 μM), in the absence of IL-2 (A) The viable cell number was measured by trypan-blue dye exclusion. […] Percent specific lysis was calculated as described previously. *: p<0.01 compared with Scsi.
# KHYG-1 cells were transfected with scrambled (Sc) or IKZF3 siRNAs. […] Percent specific lysis was calculated as previously described. […]
# NK-92 cells = assay: NK-92 cell growth by MTT assay; conditions: Pom 0.03-3 μM, 72 h
# Experimental: (A) NK-92 cells were cultured with Pom (0.5 and 1 μM) for 24 h. Whole cell lysates were subjected to immunoblotting using indicated Abs. (B) NK-92 cells were cultured with Pom (0.5 and 1 μM) for 48 h. The cells were subsequently incubated with calcein-AM-stained U266 cells for 4 h at the indicated effector/target (E/T) ratios. Percent specific lysis was calculated as described previously. (C) NK-92 cells were cultured with Pom (0.03-3 μM) for 72 h. Cell growth was assessed by MTT assay. (D) NK-92 cells were transfected with scrambled (Sc) or Zap-70 siRNA (Zap70si). After 72 h incubation, cell viability was measured by trypan-blue dye exclusion. For B, C, and D, data are representative of at least two independent experiments, and values are expressed in mean±SD.
# Zap-70 [2] = target: T1, Zap-70; assay: Immunoblotting of p-Zap-70 in primary NK cells from healthy volunteers; design: endogenous in cells; host or cells: primary PBMCs, primary T cells and primary NK cells from healthy volunteers; conditions: primary NK cells #1-#4, pomalidomide 0.5 μM, 24 h
# Experimental: as §1
compound,measurement,setting,value
Nc1cccc2c1C(=O)N(C1CCC(=O)NC1=O)C2=O (stereo not shown) [pomalidomide],p-Zap-70 (immunoblotting),Zap-70 [1],similarly enhanced p-Zap-70 in KHYG-1 cells
same,cytotoxicity against U266 cells (percent specific lysis),U266 cells,increased their cytotoxicity against U266 cells in a dose-dependent fashion
same,cell growth (MTT),NK-92 cells,neither Pom nor Zap-70 KD altered growth in NK-92 cells
same,p-Zap-70 (immunoblotting),Zap-70 [2],upregulated p-Zap-70 in primary NK cells
